Experimental data from patent publication US8877214B2, “Pharmaceutical composition for modified release” (Astellas Pharma Inc., priority 2010, dated 2014).

Key:
[1] = Pharmacokinetics (PK) test of immediate release formulation (capsule formulation) in human; type: in vivo; conditions: healthy subjects, immediate release capsules, 0.1 to 340 mg
Method: The immediate release formulations (capsule formulations) containing 0.1 mg, 1 mg, 5 mg, 20 mg, and 80 mg of the compound A were used in combinations as needed so that the dose of compound A became 0.1 mg, 1 mg, 3 mg, 10 mg, 30 mg, 100 mg, 160 mg, 240 mg, and 340 mg.

[2] = Pharmacokinetics of compound A after conventional formulation (elimination half-life; absorption by deconvolution); conditions: human, in vivo; read-out: elimination half-life (T1/2)
From the text: Taking into consideration the results of the clinical trial described above, the present inventors conducted intensive studies to design the formulation by paying attention to the control of a release rate of the drug from a formulation to the extent that the release is not affected by food intake or the like, rather than the addition of release control.
On the basis of blood concentration profiles (in a fasted state/after the intake of food) after administration of a conventional formulation (immediate release formulation), the absorption rate of the drug in a fed state was calculated by a deconvolution method to predict continuous absorption for about 4 hours.

half-life [2]: 18 to 24 h
SMILES: Nc1nc(CC(=O)Nc2ccc(CCNC[C@H](O)c3ccccc3)cc2)cs1 [Compound A, (R)-2-(2-aminothiazol-4-yl)-4′-[2-[(2-hydroxy-2-phenylethyl)amino]ethyl]acetic acid anilide]
relation between Cmax and the increase in heart rate from the base line [1]: positive correlation
